Experiments:
Type in all cases: in vivo
[1] = tested on: Beet Armyworm (BAW) (spodoptera exigua); test: Bioassay on beet armyworm (BAW), 128-well diet tray assay; conditions: for pest or weed control at 50 µg/cm2: Spodoptera exigua, 168 h, % mortality, second instar larvae, 50 μg/cm^2 on artificial diet, five to seven days, 25° C., read-out: BAW Rating; for BAW Rating: Table 5, prophetic compounds subsequently exemplified, beet armyworm
Summary of the method: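 Second-instar Spodoptera exigua larvae (one to five per well) on artificial diet surface-treated with 50 μg/cm^2 compound in 90:10 acetone-water, eight wells per compound. Held 5–7 days at 25° C, 14:10 light-dark; percent mortality averaged across wells.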

[2] = tested on: Cabbage Looper (CL) (Trichoplusia ni); test: Bioassay on cabbage looper (CL), 128-well diet tray assay; conditions: for pest or weed control at 50 µg/cm2: Trichoplusia ni, 168 h, % mortality, second instar larvae, 50 μg/cm^2 on artificial diet, five to seven days, 25° C., read-out: CL Rating; for CL Rating: Table 5, prophetic compounds subsequently exemplified, cabbage looper
Summary of the method: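 Second instar larvae, one to five per well, on artificial diet surface-treated with 50 μg/cm^2 compound in acetone-water and dried. Held at 25° C, 14:10 light-dark, five to seven days; percent mortality averaged over eight wells.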

[3] = tested on: green peach aphid (GPA) (Myzus persicae); test: Bioassay on green peach aphid (GPA), foliar spray on cabbage seedlings; conditions: 72 h, corrected % control (Abbott), 200 ppm spray on cabbage seedlings, three days, read-out: GPA Rating
Experimental: Certain molecules disclosed in this document were tested against GPA using procedures described in the following example. In the reporting of the results, the “GPA Rating Table” was used (See Table Section). Cabbage seedlings grown in 3-inch pots, with 2-3 small (3-5 cm) true leaves, were used as test substrate. The seedlings were infested with 20-50 GPA (wingless adult and nymph stages) one day prior to chemical application. Four pots with individual seedlings were used for each treatment. Test compounds (2 mg) were dissolved in 2 mL of acetone/MeOH (1:1) solvent, forming stock solutions of 1000 ppm test compound. The stock solutions were diluted 5× with 0.025% Tween 20 in water to obtain the solution at 200 ppm test compound. A hand-held aspirator-type sprayer was used for spraying a solution to both sides of […] leaves until runoff. Reference plants (solvent check) were sprayed with the diluent only containing 20% by volume of acetone/MeOH (1:1) solvent. Treated plants were held in a holding room for three days at approximately 25° C. and ambient relative humidity (RH) prior to grading. Evaluation was conducted by counting the number of live aphids per plant under a microscope. Percent Control was measured by using Abbott's correction formula (W. S. Abbott, “A Method of Computing the Effectiveness of an Insecticide” J. Econ. Entomol. 18 (1925), pp. 265-267) as follows. […]

Compound | pest or weed control at 50 µg/cm2 [1] [%] | pest or weed control at 50 µg/cm2 [2] [%] | pest or weed control at 200 ppm [3] [%] | BAW Rating [1] | CL Rating [2]
C[C@@H](NC(=O)c1ccc(/C=C/C(c2cc(Cl)c(Cl)c(Cl)c2)C(F)(F)F)cc1I)C(=O)NCC(F)(F)F (stereo partly shown) [FA16] | 50 to 100 | 50 to 100 | 80 to 100 | – | –
C[C@@H](NC(=O)c1ccc(/C=C/C(c2ccc(Br)c(Br)c2)C(F)(F)F)cc1C(F)(F)F)C(=O)NCC(F)(F)F (stereo partly shown) [P660] | – | – | – | A (50-100) | A (50-100)
CC(NC(=O)c1ccc(/C=C/C(c2cc(Cl)c(Cl)c(Cl)c2)C(F)(F)F)cc1C(F)(F)F)C(=O)NCCC(F)(F)F (stereo not shown) [P1633A] | – | – | – | A (50-100) | A (50-100)
C[C@@H](NC(=O)c1ccc(/C=C/C(c2cccc(OC(F)(F)F)c2)C(F)(F)F)cc1Br)C(=O)NCC(F)(F)F (stereo partly shown) [P226] | – | – | – | A (50-100) | A (50-100)
O=C(CNC(=O)c1ccc(/C=C/C(c2cc(Br)cc(Br)c2)C(F)(F)F)cc1C(F)(F)F)NCC(F)(F)F (stereo not shown) [P1971] | – | – | – | A (50-100) | A (50-100)
CCc1cc(Cl)cc(C(/C=C/c2ccc(C(=O)N[C@H](C)C(=O)NCC(F)(F)F)c(Br)c2)C(F)(F)F)c1 (stereo partly shown) [FA31] | 50 to 100 | 50 to 100 | – | – | –
C[C@@H](NC(=O)c1ccc(/C=C/C(c2cc(Cl)cc(Cl)c2)C(F)(F)C(F)(F)F)cc1Br)C(=O)NCC(F)(F)F (stereo partly shown) [P1691] | – | – | – | A (50-100) | A (50-100)
Cc1cc(C(/C=C/c2ccc(C(=O)N[C@H](C)C(=O)NCC(F)(F)F)c(Br)c2)C(F)(F)F)ccc1F (stereo partly shown) [P1090] | – | – | – | A (50-100) | A (50-100)
C[C@@H](NC(=O)c1ccc(/C=C/C(c2cc(Br)cc(Br)c2)C(F)(F)F)cc1Br)C(=O)NCCF (stereo partly shown) [P2041] | – | – | – | A (50-100) | A (50-100)
Cc1ccc(C(/C=C/c2ccc(C(=O)N[C@H](C)C(=O)NCC(F)(F)F)c(Br)c2)C(F)(F)F)cc1Cl (stereo partly shown) [P442] | – | – | – | A (50-100) | A (50-100)
C[C@@H](NC(=O)c1ccc(/C=C/C(c2ccc(Cl)c([N+](=O)[O-])c2)C(F)(F)F)cc1C(F)(F)F)C(=O)NCC(F)(F)F (stereo partly shown) [P732] | – | – | – | A (50-100) | A (50-100)
O=C(CNC(=O)c1ccc(/C=C/C(c2cc(Cl)c(Cl)c(Cl)c2)C(F)(F)F)cc1Br)NCCC(F)(F)F (stereo not shown) [FA7] | 50 to 100 | 50 to 100 | – | – | –
